The values below come from patent publication US4710498A, “Pyridyloxy derivatives” (Ikeda Mohando Co., Ltd., priority 1984, dated 1987).

For one series, the target named is T1, Histamine H2 -Receptor (Cavia porcellus, UniProt P47747).
T1 construct: from tissue; host or cells: isolated right atrium of male Hartley guinea pig
As to the kind of experiment: biochemical. On the set-up: species or system male Hartley guinea pig. To be noted: negative logarithm of molar concentration; isolated guinea pig atrium; read-out: Antagonistic Action against Histamine H2 -Receptor (pA2) Determined by Using Atrium isolated from Guinea Pig (converted). As for the experimental part:
A male Hartley guinea pig having a body weight of about 400 g was killed by cervical dislocation, and the atrium thereof was isolated and was suspended in an organ bath containing […] of a modified Ringer solution and subjected to a tension of 1 g. The number of heart beats under such condition was recorded using a polygraph.
Initially, from 1×10^-7 mol to 3×10^-4 mol of histamine was allowed to act accumulatively to depict the curve of the dosage-reaction relationship. Likewise, the curve of the dosage of histamine-reaction relationship was depicted in the presence of 5×10^-7 mol to 1×10^-6 mol of the test sample which was injected 3 minutes before. The negative logarithm (pA2) of the molar concentration of the test sample required for moving the curve obtained by single administration of histamine parallel to the right side by a two-times concentration was calculated.

The nature of series [1]: Acute toxicity test on mice dosed orally. In kind it is in vivo. The conditions noted are these: mouse, in vivo, po. The protocol: (§1) Male ddy mice each having a body weight of about 22 g and which had not eaten for 8 hours were orally dosed with the test samples, and the general symptoms and fatalities were observed from the time immediately following the administration to 14 days after the administration.
(§2) The median lethal dose (LD50) was calculated in accordance with the Litchfield and Wilcoxon Method.

In series [2] the test system is Gastric Acid Secretion Induced by Histamine. As to the kind of experiment: Inhibition effect on gastric acid secretion induced by histamine in pylorus ligated rat (subcutaneous). In kind it is in vivo, male Wistar rat. To be noted: Rattus norvegicus; 0.2 mg/kg SC; histamine 3 mg/kg SC; average of five runs; read-out: Secretion of Gastric Acid in Rat, Inhibition Rate (%). The protocol:
(§3) A male Wistar rat having a body weight of about 160 g and which had not fed for 24 hours was anesthetized by an intraperitoneal dose of 1.2 g/kg of urethane. After ligating of pylorus and esophagus, the gaster anterior was incised and fitting with a double polyethylene cannula. The wall of the stomach was rinsed with 5 ml of saline at 30 minutes intervals, and the quantity of gastric acid contained in each rinsing solution was measured by titration.
The basal acid secretion was initially measured three times, and then 0.2 mg/kg of each of the compounds of this invention was administered subcutaneously and 3 mg/kg of histamine was administered subcutaneously after the lapse of an additional 30 minutes.
(§4) The quantity of gastric acid secreted after the operation was measured continuously for 3 hours. Within that measurement interval, three time points at which the increase in acid secretion reached a maximum level were selected, and the average quantity of gastric acid secreted at those time points was taken as the increase in acid secretion, which was compared with the increase in acid secretion of the control group to calculate the percent inhibition for secretion of gastric acid (Table 1). [formula] (The result was shown as the average value of five runs.)

The test system of another series is Mice. In words: Acute toxicity test on mice dosed orally. To be noted: orally, mice. In kind it is in vivo. As for the experimental part:
as §1, §2

Series [3] relates to Gastric Acid Secretion Induced by Histamine. In words: Inhibitory effect of intraduodenally administered compounds on gastric acid secretion induced by histamine in rat. The conditions noted are these: for ED50: Rattus norvegicus, intraduodenal, 30 minutes before histamine SC, read-out: Median effective dose (ED50) inhibiting Gastric Acid Section (95% Reliability Limit); for Efficacy Ratio relative to Cimetidine (Cimetidine = 1): rat, in vivo. In kind it is in vivo, male Wistar rat. As for the experimental part: The test was conducted by an improved method based on that reported by Watanabe et al., in "Pharmacometrics", Vol. 3, No. (1), pages 7 to 14 (1969).
as §3, §4

Where [4] appears, read: P.O., 14 days observation, Litchfield and Wilcoxon Method, read-out: Median lethal dose (LD50).

The structures appear in SMILES notation. Like-named read-outs stand apart in the source and are kept apart here. Where only a bound is given, the exact number is not on record here.

T1 sequence (P47747 whole entry): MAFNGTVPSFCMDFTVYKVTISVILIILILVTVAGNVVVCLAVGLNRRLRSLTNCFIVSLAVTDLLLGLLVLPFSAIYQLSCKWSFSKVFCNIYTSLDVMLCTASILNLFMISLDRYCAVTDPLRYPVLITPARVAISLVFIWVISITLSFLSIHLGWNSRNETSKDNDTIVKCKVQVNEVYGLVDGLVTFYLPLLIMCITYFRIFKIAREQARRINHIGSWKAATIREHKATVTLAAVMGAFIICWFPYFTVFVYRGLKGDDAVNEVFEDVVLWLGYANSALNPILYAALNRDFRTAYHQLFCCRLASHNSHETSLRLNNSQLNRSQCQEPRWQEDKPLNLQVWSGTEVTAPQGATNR

As a reminder, the LD50 is the dose at which mortality reaches 50%. As for `CN(C)Cc1ccnc(OC/C=C\CNc2n[s+]([O-])nc2N)c1` (stereo not drawn) [Ex. 11, 3-amino-4-<4-(4-dimethylaminomethylpyridyl-2-oxy)-cis-2-butenylamino>-1,2,5-thiadiazole-1-oxide], at Histamine H2 -Receptor, the Kb is 490 nM. Further, the LD50 at 336 h in series [1] (setting [4]) was above 1500 mg/kg. Also, the inhibition in vivo at 0.2 mg/kg in series [2] was 101%.
`O=c1nc(NC/C=C\COc2cc(CN3CCCCC3)ccn2)[nH]cc1Cc1cccnc1` [Ex. 22, 2-[4-<4-(1-piperidinomethyl)pyridyl-2-oxy>-cis-2-butenylamino]-5-(3-pyridylmethyl)-1H-pyrimidin-4-one]: the Kb on Histamine H2 -Receptor is 363 nM. Further, the LD50 at 336 h in series [1] (setting [4]) was determined as 1600 mg/kg. For the same compound, the “acute toxicity / LD50 (in words)” value in the series with Mice is “lower LD50 values than that of Cimetidine”. In addition, the inhibition in vivo at 0.2 mg/kg in series [2] worked out at 40%.
For the compound `CNc1n[s+]([O-])nc1NC/C=C\COc1cc(CN(C)C)ccn1` (stereo not drawn) [Ex. 12, 3-methylamino-4-<4-(4-dimethylaminomethylpyridyl-2-oxy)-cis-2-butenylamino>-1,2,5-thiadiazole-1-oxide], the Kb at Histamine H2 -Receptor was 263 nM. In addition, the LD50 at 336 h in series [1] (setting [4]) is above 1500 mg/kg. The inhibition in vivo at 0.2 mg/kg in series [2] amounted to 91%.
The like results for `Cn1nc(N)nc1NC/C=C\COc1cc(CN2CCCCC2)ccn1` [Ex. 19, 3-amino-1-methyl-5-[4-<4-(1-piperidinomethyl)pyridyl-2-oxy>-cis-2-butenylamino]-1H-1,2,4-triazole] were, in that order, 759 nM, above 1500 mg/kg and 3%.
For orientation: ED50 means the midpoint of the dose-response relation. Regarding `Nc1c(NC/C=C\COc2cc(CN3CCCCC3)ccn2)c(=O)c1=O` [Ex. 1, 1-amino-2-[4-<4-(1-piperidinomethyl)pyridyl-2-oxy>-cis-2-butenylamino]-1-cyclobuten-3,4-dione], the 50% effective dose (ED50) in series [3] (first series (Table 2-1)) is 0.15 mg/kg. Further, the Kb on Histamine H2 -Receptor is 339 nM. In addition, the LD50 at 336 h in series [1] was above 1500 mg/kg. Besides, the inhibition in vivo at 0.2 mg/kg in series [2] amounted to 54%.
For the compound `Cn1nc(N)c(NC/C=C\COc2cc(CN3CCCCC3)ccn2)nc1=O` [Ex. 29, 6-amino-2-methyl-5-[4-<4-(1-piperidinomethyl)pyridyl-2-oxy>-cis-2-butenylamino]-1,2,4-triazin-3-one], at Histamine H2 -Receptor, the Kb was 708 nM. Further, the 50% lethal dose (LD50) at 336 h in series [1] (setting [4]) is 1250 mg/kg. Also, the “acute toxicity / LD50 (in words)” value in the series on Mice is “lower LD50 values than that of Cimetidine”. Moreover, in series [2], the inhibition in vivo at 0.2 mg/kg was 74%.
As for `O=c1nc(NC/C=C\COc2cc(CN3CCCCC3)ccn2)[nH]nc1Cc1cccnc1` [Ex. 25, 3-[4-<4-(1-piperidinomethyl)pyridyl-2-oxy>-cis-2-butenylamino]-6-(3-pyridylmethyl)-1,2,4-triazin-5-one], the 50% effective dose (ED50) in series [3] (first series (Table 2-1)) came to 0.14 mg/kg. Further, in series [3], the “Efficacy Ratio relative to Cimetidine (Cimetidine = 1)” value (shortened to “Efficacy Ratio relative to Cimetidine”) is 50.0. For the same compound, at Histamine H2 -Receptor, the Kb was 170 nM. Further, in series [2], the inhibition in vivo at 0.2 mg/kg turned out to be 55%.
`Nc1n[s+]([O-])nc1NC/C=C\COc1cc(CN2CCCCC2)ccn1` (stereo not drawn) [Ex. 7, 3-amino-4-[4-<4-(1-piperidinomethyl)pyridyl-2-oxy>-cis-2-butenylamino]-1,2,5-thiadiazole-1-oxide]: in series [3] (first series (Table 2-1)), the ED50 came out at 0.44 mg/kg. In addition, the “Efficacy Ratio relative to Cimetidine” value in series [3] turned out to be 15.9. The Kb on Histamine H2 -Receptor is 661 nM. In addition, in series [2], the inhibition in vivo at 0.2 mg/kg amounted to 90%.
Consider `Nc1n[nH]c(=O)nc1NC/C=C\COc1cc(CN2CCCCC2)ccn1` [Ex. 27, 6-amino-5-[4-<4-(1-piperidinomethyl)pyridyl-2-oxy>-cis-2-butenylamino]-1,2,4-triazin-3-one], for which the Kb at Histamine H2 -Receptor is 275 nM. Moreover, in series [1] (setting [4]), the LD50 at 336 h is above 1500 mg/kg. For the same compound, the inhibition in vivo at 0.2 mg/kg in series [2] amounted to 88%.
As for `Nc1n[s+]([O-])nc1NC/C=C/COc1cc(CN2CCCCC2)ccn1` (stereo not drawn) [Ex. 9, 3-amino-4-[4-<4-(1-piperidinomethyl)pyridyl-2-oxy>-trans-2-butenylamino]-1,2,5-thiadiazole-1-oxide], in series [3] (first series (Table 2-1)), the median effective dose (ED50) stood at 0.46 mg/kg. Moreover, the “Efficacy Ratio relative to Cimetidine” value in series [3] worked out at 15.2. The Kb at Histamine H2 -Receptor was 339 nM. Moreover, in series [1] (setting [4]), the median lethal dose (LD50) at 336 h is above 1500 mg/kg. Moreover, the inhibition in vivo at 0.2 mg/kg in series [2] turned out to be 62%.
`Nc1c(NC/C=C\COc2cccc(CN3CCCCC3)n2)c(=O)c1=O` [Ex. 32, 1-amino-2-[4-<6-(1-piperidinomethyl)pyridyl-2-oxy>-cis-2-butenylamino]-1-cyclobuten-3,4-dione]: the ED50 in series [3] (second series (Table 2-2)) came to 0.25 mg/kg. The “Efficacy Ratio relative to Cimetidine” value in series [3] is 32.8. Also, the Kb at Histamine H2 -Receptor is 490 nM. Further, in series [2], the inhibition in vivo at 0.2 mg/kg turned out to be 33%.
Turning to `CNc1c(NC/C=C\COc2cc(CN3CCCCC3)ccn2)c(=O)c1=O` [Ex. 2, 1-methylamino-2-[4-<4-(1-piperidinomethyl)pyridyl-2-oxy>-cis-2-butenylamino]-1-cyclobuten-3,4-dione], in series [3] (first series (Table 2-1)), the median effective dose (ED50) was determined as 0.27 mg/kg. Moreover, the “Efficacy Ratio relative to Cimetidine” value in series [3] is given as 25.9. Also, the Kb at Histamine H2 -Receptor was 174 nM. The LD50 at 336 h in series [1] (setting [4]) is above 1500 mg/kg. In addition, the inhibition in vivo at 0.2 mg/kg in series [2] was 60%.
As to `NC1=NS(=O)(=O)N=C1NC/C=C\COc1cccc(CN2CCCCC2)n1` [Ex. 36, 3-amino-4-[4-<6-(1-piperidinomethyl)pyridyl-2-oxy>-cis-2-butenylamino]-1,2,5-thiadiazole-1,1-dioxide], the ED50 in series [3] (second series (Table 2-2)) was 0.2 mg/kg. Moreover, the “Efficacy Ratio relative to Cimetidine” value in series [3] amounted to 41.0. Also, on Histamine H2 -Receptor, the Kb was 263 nM. The inhibition in vivo at 0.2 mg/kg in series [2] came out at 72%.
